We go through 14 molecules from patent US12568969B2, “Pyridine compounds for controlling invertebrate pests” (FMC Corporation, priority 2020, dated 2026).

Where only a bound is given, the exact number is not on record here.

Type in all cases: in vivo
For experiment [1], the system named is diamondback moth (Plutella xylostella (L.)). Briefly: Test A: control of diamondback moth on mustard plant, spray. The note with it: sprayed at 250 ppm; assessed after 6 days.
Experiment [2] concerns Western Flower Thrips (Frankliniellla occidentalis (Pergande)). Nature of the experiment: Test G: control of Western Flower Thrips on Soleil bean plant, spray. As to conditions: sprayed at 250 ppm; 6 days. The procedure:
(§1) Test compounds were formulated using a solution containing 10% acetone, […] and 300 ppm Activator 909 non-ionic surfactant (Loveland Products, Loveland, Colorado, USA). The formulated compounds were applied in 1 mL of liquid through an atomizer nozzle positioned 1.27 cm (0.5 inches) above the top of each test unit. Test compounds were sprayed at the rates indicated, and each test was replicated three times.
For evaluating control of the Western Flower Thrips (Frankliniellla occidentalis (Pergande)) through contact and/or systemic means, the test unit consisted of a small open container with a 5-7-day-old Soleil bean plant inside.
Test compounds were formulated and sprayed at 250 ppm. After spraying, the test units were allowed to dry for 1 hour, and then about 60 thrips (adults and nymphs) were added to each unit. A black, screened cap was placed on top, and the test units were held for 6 days at 25° C. and 45-55% relative humidity. Each test unit was then visually assessed for plant damage and insect mortality.

Experiment [3] concerns cotton melon aphid (Aphis gossypii (Glover)). Nature of the experiment: whole plant or invertebrate. As to conditions: Aphis gossypii, 144 h, 6 days; for mortality at 50 ppm: sprayed at 50 ppm; for mortality at 250 ppm: sprayed at 250 ppm. Put shortly: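 Compounds were formulated in a solution of 10% acetone, […] and 300 ppm Activator 909 non-ionic surfactant and sprayed as 1 mL through an atomizer nozzle 1.27 cm (0.5 inches) above each test unit, with three replicates. Units were pre-infested with 30-40 aphids on leaf pieces via the cut-leaf method, soil covered with sand, then kept 6 days at 19° C. and 70% relative humidity before visual mortality scoring.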

Experiment [4] deals with sweetpotato whitefly (Bemisia tabaci (Gennadius)). Briefly: Test F: control of sweetpotato whitefly on cotton plant, spray. As to conditions: 312 h, 13 days; for mortality at 50 ppm: sprayed at 50 ppm; for mortality at 250 ppm: sprayed at 250 ppm. The procedure:
as §1
For evaluating control of the sweetpotato whitefly (Bemisia tabaci (Gennadius)) through contact and/or systemic means, the test unit consisted of a small open container with a 12-14-day-old cotton plant inside. Prior to the spray application, both cotyledons were removed from the plant, leaving one true leaf for the assay. Adult whiteflies were allowed to lay eggs on the plant and then were removed from the test unit. Cotton plants infested with at least 15 eggs were submitted to the test for spraying.
Test compounds were formulated and sprayed at 250 and/or 50 ppm. After spraying, the test units were allowed to dry for 1 hour. The cylinders were then removed, and the units were taken to a growth chamber and held for 13 days at 28° C. and 50-70% relative humidity. Each test unit was then visually assessed for insect mortality.

Experiment [5] has as its system green peach aphid (Myzus persicae (Sulzer)). Briefly: Test D: control of green peach aphid on radish plant, spray. The note with it: Myzus persicae, 144 h, 6 days; for mortality at 250 ppm: sprayed at 250 ppm; for mortality at 50 ppm: sprayed at 50 ppm. Put shortly:
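Radish plants (12-15 days old) pre-infested with 30-40 aphids, sprayed with compound in 10% acetone/water with 300 ppm non-ionic surfactant at 250 and/or 50 ppm, three replicates. Held 6 days at 19-21 °C, 50-70% relative humidity, then mortality scored visually.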

For experiment [6], the system named is corn planthopper (Peregrinus maidis (Ashmead)). Briefly: whole plant or invertebrate. The note with it: Peregrinus maidis, 144 h, 6 days; for mortality at 50 ppm: sprayed at 50 ppm; for mortality at 250 ppm: sprayed at 250 ppm; for mortality at 10 ppm: sprayed at 10 ppm. In short, it runs like this: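 Corn plants 3-4 days old were sprayed at 250, 50 and/or 10 ppm in 10% acetone with 300 ppm non-ionic surfactant, three replicates, contact and/or systemic exposure. After 1 h drying, ~15-20 nymphs (18-to-21-day-old) were added; mortality assessed visually after 6 days at 22-24° C, 50-70% RH.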

In experiment [7] the test system is potato leafhopper (Empoasca fabae (Harris)). Briefly: Test C: control of potato leafhopper on Soleil bean plant, spray. The note with it: Empoasca fabae, 144 h; sprayed at 250 ppm; 6 days. On the procedure:
as §1
For evaluating control of potato leafhopper (Empoasca fabae (Harris)) through contact and/or systemic means, the test unit consisted of a small open container with a 5-6-day-old Soleil bean plant (primary leaves emerged) inside. White sand was added to the top of the soil, and one of the primary leaves was excised prior to application of the test compound.
[…] After spraying of the formulated test compound, the test units were allowed to dry for 1 hour before they were post-infested with 5 potato leafhoppers (18-to-21-day-old adults). A black, screened cap was placed on the top of the test unit, and the test units were held for 6 days in a growth chamber at 20° C. and 70% relative humidity. Each test unit was then visually assessed for insect mortality.

Consider `FC(c1ccc(OC(F)(F)F)cc1)c1c(Br)cncc1-n1nc(Br)c(Br)n1` (racemic) [Compound 29], for which the “control efficacy (40% or less feeding damage and/or 100% mortality)” value in experiment [1] is “very good to excellent levels of control efficacy”. Further, the “control efficacy (30% or less plant damage and/or 100% mortality)” value in experiment [2] is “very good to excellent levels of control efficacy”.

Regarding `Fc1cncc(-n2cccn2)c1C(F)c1ccc(SC(F)(F)F)cc1` (stereo not drawn) [Compound 1], the mortality (as a rule, the percentage killed) at 50 ppm in experiment [3] was not below 80%; in experiment [4], not below 70%; in experiment [6] it was not below 80%. In addition, the mortality at 250 ppm in experiment [3] is not below 80%; in experiment [4], not below 70%; in experiment [5], not below 80%; in experiment [6], not below 80%. The “control efficacy (40% or less feeding damage and/or 100% mortality)” value in experiment [1] is “very good to excellent levels of control efficacy”. In addition, the “control efficacy (30% or less plant damage and/or 100% mortality)” value in experiment [2] is listed as “very good to excellent levels of control efficacy”.

As to `FC(c1ccc(OC(F)(F)F)cc1)c1ccncc1-n1nccn1` (stereo not drawn) [Compound 9], the mortality at 250 ppm in experiment [7], in experiment [3] and in experiment [6] was not below 80% in each case. Moreover, the mortality at 50 ppm in experiment [3] and in experiment [6] was not below 80% each time.

For the molecule `FC(c1ccc(OC(F)(F)F)cc1)c1ccncc1-n1cccn1` (stereo not drawn) [Compound 11], the mortality at 250 ppm in experiment [7], in experiment [3], in experiment [5] and in experiment [6] was not below 80% each time. Further, the mortality at 50 ppm in experiment [3] and in experiment [6] was not below 80% in each case.

As to `FC(c1ccc(OC(F)(F)F)cc1)c1c(Cl)cncc1-n1nccn1` (stereo not drawn) [Compound 14], the mortality at 250 ppm was not below 80% in experiment [7]; not below 80% in experiment [3]; not below 70% in experiment [4]; not below 80% in experiment [5]; not below 80% in experiment [6]. The mortality at 50 ppm in experiment [3] was not below 80%; in experiment [4] it was not below 70%; in experiment [5], not below 80%; in experiment [6], not below 80%.

In the case of `Fc1cncc(-n2cccn2)c1C(F)c1ccc(C(F)(F)F)cc1` (stereo not drawn) [Compound 21], the mortality at 250 ppm in experiment [7], in experiment [3], in experiment [5] and in experiment [6] was not below 80% in each case. The mortality at 50 ppm in experiment [3], in experiment [5] and in experiment [6] was not below 80% throughout. For the same molecule, the “control efficacy (40% or less feeding damage and/or 100% mortality)” value in experiment [1] is “very good to excellent levels of control efficacy”.

For `Fc1cncc(-c2ncco2)c1C(F)c1ccc(OC(F)(F)F)cc1` (stereo not drawn) [Compound 32], the mortality at 250 ppm in experiment [7] was not below 80%. For the same molecule, in experiment [3], the mortality at 50 ppm was not below 80% and the mortality at 250 ppm is not below 80%. In experiment [6], this molecule registered a mortality at 10 ppm not below 80%, a mortality at 50 ppm not below 80% and a mortality at 250 ppm not below 80%. In experiment [1], the “control efficacy (40% or less feeding damage and/or 100% mortality)” value is given as “very good to excellent levels of control efficacy”. Also, the “control efficacy (30% or less plant damage and/or 100% mortality)” value in experiment [2] is on record as “very good to excellent levels of control efficacy”.

Turning to `Fc1cncc(-c2nccs2)c1C(F)c1ccc(OC(F)(F)F)cc1` (stereo not drawn) [Compound 33], the mortality at 250 ppm in experiment [7], in experiment [3] and in experiment [6] was not below 80% in each case. Further, the mortality at 50 ppm in experiment [3] and in experiment [6] was not below 80% in each case. The mortality at 10 ppm in experiment [6] was not below 80%. In addition, the “control efficacy (40% or less feeding damage and/or 100% mortality)” value in experiment [1] is listed as “very good to excellent levels of control efficacy”. Also, the “control efficacy (30% or less plant damage and/or 100% mortality)” value in experiment [2] is “very good to excellent levels of control efficacy”.

Take `Fc1cncc(-c2nccs2)c1C(F)c1ccc(OC(F)(F)F)cc1` (stereo not drawn) [Compound 36]: the mortality at 250 ppm in experiment [4] is not below 70%; in experiment [5], not below 80%. Further, in experiment [1], the “control efficacy (40% or less feeding damage and/or 100% mortality)” value is “very good to excellent levels of control efficacy”. Besides, in experiment [2], the “control efficacy (30% or less plant damage and/or 100% mortality)” value was “very good to excellent levels of control efficacy”.

On to `COC(c1ccc(OC(F)(F)F)cc1)c1c(F)cncc1-n1cccn1` (stereo not drawn) [Compound 37], for which the mortality at 250 ppm in experiment [7] was not below 80%; in experiment [3], not below 80%; in experiment [4] it was not below 70%; in experiment [5], not below 80%; in experiment [6], not below 80%. The mortality at 50 ppm in experiment [3] and in experiment [6] was not below 80% each time.

The molecule `Fc1cncc(-c2ccno2)c1C(F)c1ccc(OC(F)(F)F)cc1` (stereo not drawn) [Compound 41] came in with a mortality at 250 ppm in experiment [3] not below 80%. Further, in experiment [6], the mortality at 10 ppm was not below 80% and the mortality at 50 ppm was not below 80%. Further, the “control efficacy (30% or less plant damage and/or 100% mortality)” value in experiment [2] is given as “very good to excellent levels of control efficacy”.

Regarding `FC(c1ccc(OC(F)(F)F)cc1)c1c(Cl)cncc1-c1nccs1` (stereo not drawn) [Compound 50], in experiment [3], the mortality at 50 ppm is not below 80% and the mortality at 250 ppm is not below 80%. Also, in experiment [6], the mortality at 10 ppm was not below 80% and the mortality at 50 ppm is not below 80%. In experiment [1], the “control efficacy (40% or less feeding damage and/or 100% mortality)” value is “very good to excellent levels of control efficacy”. Moreover, in experiment [2], the “control efficacy (30% or less plant damage and/or 100% mortality)” value is “very good to excellent levels of control efficacy”.

With `FC(c1ccc(SC(F)(F)F)cc1)c1ccncc1-n1nccn1` (stereo not drawn) [Compound 69], the mortality at 250 ppm in experiment [7] is not below 80%; in experiment [3], not below 80%; in experiment [4], not below 70%; in experiment [5], not below 80%; in experiment [6], not below 80%. For the same molecule, the mortality at 50 ppm in experiment [3] was not below 80%; in experiment [4], not below 70%; in experiment [5], not below 80%; in experiment [6] it was not below 80%. The same molecule displayed a mortality at 10 ppm in experiment [6] not below 80%.

With `CO[C@H](c1ccc(OC(F)(F)F)cc1)c1c(F)cncc1-n1nccn1` [Compound 125, 3-fluoro-4-[(R)-methoxy-[4-(trifluoromethoxy)phenyl]methyl]-5-(triazol-2 yl)pyridine], the mortality at 50 ppm in experiment [3] is not below 80%; in experiment [4] it was not below 70%; in experiment [5] it was not below 80%; in experiment [6] it was not below 80%. Further, the mortality at 250 ppm in experiment [3] was not below 80%; in experiment [4], not below 70%; in experiment [5], not below 80%; in experiment [6], not below 80%. In experiment [6], this molecule displayed a mortality at 10 ppm not below 80%. Also, the “control efficacy (40% or less feeding damage and/or 100% mortality)” value in experiment [1] is listed as “very good to excellent levels of control efficacy”.
